Assay results: patent publication US6436924B1, “Antihistamine leukotriene combinations” (ASTA Medica AG, priority 2000, dated 2002)

Tested on: nasal mucosal permeability in actively sensitized and topically provoked brown Norway rats
Experiment: Rhinitis model: nasal mucosal permeability (Evans Blue plasma extravasation) after ovalbumin provocation
Format: in vivo
Text: The following pharmacological investigation describes the action of azelastine and montelukast on their own and in combination on a rhinitis model on brown Norway rats. The brown Norway rats were actively sensitized by double i.p. injection of a suspension of ovalbumin and aluminum hydroxide in physiological saline solution on two successive days. Three weeks after sensitization, a catheter was tied into the trachea of the animals in orthograde manner under sodium thiopental anesthesia to maintain the respiration of the animals and a further catheter was advanced in a retrograde manner through the trachea up to the internal opening of the choanas for the perfusion of the nasal cavities and fixed. The nasal perfusate can thus trickle out through the nasal cavities and be accepted by a fraction collector. The test substances were either suspended in Tylose (montelukast) or dissolved in physiological saline solution (azelastine) and injected intraperitoneally 60 min before allergen provocation. PBS was perfused through the nasal cavity for 30 min using a roller pump (perfusion rate 0.5 ml/min) to rinse mucus away from the nose. In the case of topical application, the test substances are added to the perfusate in molar concentration and the solution is perfused through the nose for 30 min before allergen provocation. The plasma marker Evans Blue (1 ml/animal each of a 1% strength solution in PBS) was then injected into the jugular vein. The perfusion was collected during a 15 min break. The allergen provocation (challenge) was then carried out by perfusion of the nasal cavity with a solution of ovalbumin in PBS (10 mg/ml of ovalbumin in PBS) for 60 min, during which the perfusate was collected in the fraction collector in 15 min fractions. The total amount of the samples/animal was 5. The samples were centrifuged and then applied to microtiter plates and measured at a wavelength of 620 nm using the Digiscan photometer. The blank values were automatically subtracted. The course of action over 60 min was calculated using an AUC program. The substance action of the preparation group was calculated in % against vehicle controls.
An increased mucosal permeability after allergen provocation is to be assessed as a sign of the release of messengers such as histamine and leukotrienes. After antigen contact, this phenomenon occurs even in allergic people and is manifested by increased fluid secretion and nasal blockage.

[1] = 0.1 mg/kg i.p., 60 min before allergen provocation
[2] = 1 mg/kg i.p., 60 min before allergen provocation

## COc1ccc2c(c1)c(O)nn2Cc1ccc(OCc2ccc3ccccc3n2)cc1.Cl.Cl [AWD 23-115, 1-[4-(quinolin-2-ylmethoxy)benzyl]-5-methoxy-1H-indazol-3-ol dihydrochloride]
Dose range of 0.03 to 10 mg/kg i.p.
  dose-dependent inhibition of the vascular permeability: 37-54%
Topical application in the perfusate, 0.1 mmol/l
  Inhibitory action in % (nasal mucosal permeability): 12%
Topical application in the perfusate, 0.3 mmol/l
  Inhibitory action in % (nasal mucosal permeability): 32%
Topical application in the perfusate, 1 mmol/l
  Inhibitory action in % (nasal mucosal permeability): 49%
Topical application, 0.3 μmol/l
  inhibition of the vascular permeability: 32%
Topical application, 1 μmol/l
  inhibition of the vascular permeability: 49%

## CN1CCCC(n2nc(Cc3ccc(Cl)cc3)c3ccccc3c2=O)CC1 (centres unmarked) [Azelastine]
0.01 mg/kg i.p., 60 min before allergen provocation
  Inhibitory action in % (nasal mucosal permeability): 11%
[1]
  Inhibitory action in % (nasal mucosal permeability): 39%
0.3 mg/kg i.p., 60 min before allergen provocation
  Inhibitory action in % (nasal mucosal permeability): 42%
[2]
  Inhibitory action in % (nasal mucosal permeability): 47%
Topical application in the perfusate, 0.003 mmol/l
  Inhibitory action in % (nasal mucosal permeability): 3%
Topical application in the perfusate, 0.01 mmol/l
  Inhibitory action in % (nasal mucosal permeability): 40%
Topical application in the perfusate, 0.03 mmol/l
  Inhibitory action in % (nasal mucosal permeability): 60%
Topical application, concentrations of 0.003 to 0.03 μmol/l
  inhibition of the mucosal plasma extravasation: strong inhibition

## O=C(O)[C@@H](c1ccc(OCc2ccc3ccccc3n2)cc1)C1CCCC1 [Bay X 1005]
[1]
  Inhibitory action in % (nasal mucosal permeability): 31%

## CC(C)(O)c1ccccc1CC[C@@H](SCC1(CC(=O)O)CC1)c1cccc(/C=C/c2ccc3ccc(Cl)cc3n2)c1 [Montelukast]
[1]
  Inhibitory action in % (nasal mucosal permeability): 7%
[2]
  Inhibitory action in % (nasal mucosal permeability): 26%
3 mg/kg i.p., 60 min before allergen provocation
  Inhibitory action in % (nasal mucosal permeability): 39%
10 mg/kg i.p., 60 min before allergen provocation
  Inhibitory action in % (nasal mucosal permeability): 44%
30 mg/kg i.p., 60 min before allergen provocation
  Inhibitory action in % (nasal mucosal permeability): 58%
